Data from ChEMBL document CHEMBL4831516, “Development of Membrane-Active Honokiol/Magnolol Amphiphiles as Potent Antibacterial Agents against Methicillin-Resistant Staphylococcus aureus (MRSA)” (J Med Chem, 2021).

Legend:
[1] = test system: Staphylococcus aureus; test: Antibacterial activity against Staphylococcus aureus ATCC29213 assessed as inhibition of visible growth incubated for 16 to 18 hrs by CLSI method; assay type: functional; conditions: time 16-18 hrs, read-out: MIC100
[2] = test system: Enterococcus faecalis; test: Antibacterial activity against Enterococcus faecalis ATCC29212 assessed as inhibition of visible growth incubated for 16 to 18 hrs by CLSI method; assay type: functional; conditions: time 16-18 hrs, read-out: MIC100
[3] = test system: Bacillus subtilis; test: Antibacterial activity against Bacillus subtilis assessed as inhibition of visible growth incubated for 16 to 18 hrs by CLSI method; assay type: functional; conditions: time 16-18 hrs, read-out: MIC100
[4] = test system: Micrococcus luteus; test: Antibacterial activity against Micrococcus luteus assessed as inhibition of visible growth incubated for 16 to 18 hrs by CLSI method; assay type: functional; conditions: time 16-18 hrs, read-out: MIC100
[5] = test system: Escherichia coli; test: Antibacterial activity against Escherichia coli ATCC25922 assessed as inhibition of visible growth incubated for 16 to 18 hrs by CLSI method; assay type: functional; conditions: time 16-18 hrs, read-out: MIC100
[6] = test system: Stenotrophomonas maltophilia; test: Antibacterial activity against Stenotrophomonas maltophilia assessed as inhibition of visible growth incubated for 16 to 18 hrs by CLSI method; assay type: functional; conditions: time 16-18 hrs, read-out: MIC100
[7] = test system: Salmonella enterica; test: Antibacterial activity against Salmonella enterica 349812 assessed as inhibition of visible growth incubated for 16 to 18 hrs by CLSI method; assay type: functional; conditions: time 16-18 hrs, read-out: MIC100
[8] = test system: Salmonella enterica; test: Antibacterial activity against Salmonella enterica 8389 assessed as inhibition of visible growth incubated for 16 to 18 hrs by CLSI method; assay type: functional; conditions: time 16-18 hrs, read-out: MIC100
[9] = Hemolytic activity in sheep RBC assessed as hemolysis incubated for 1 hr; assay type: ADME, cell-based, Ovis aries, Erythrocyte; conditions: sheep red blood cells (erythrocytes)
[10] = Selectivity index, HC50 for hemolytic activity in sheep RBC to MIC for antibacterial activity against Staphylococcus aureus ATCC29213; assay type: toxicity; conditions: sheep red blood cells (erythrocytes), read-out: Selectivity Index
[11] = test system: Staphylococcus aureus; test: Antibacterial activity against methicillin-resistant Staphylococcus aureus clinical isolate M-11 assessed as inhibition of visible growth incubated for 16 to 18 hrs by CLSI method; assay type: functional; conditions: time 16-18 hrs, read-out: MIC100
[12] = test system: Staphylococcus aureus; test: Antibacterial activity against methicillin-resistant Staphylococcus aureus clinical isolate M-12 assessed as inhibition of visible growth incubated for 16 to 18 hrs by CLSI method; assay type: functional; conditions: time 16-18 hrs, read-out: MIC100
[13] = test system: Staphylococcus aureus; test: Antibacterial activity against methicillin-resistant Staphylococcus aureus clinical isolate M-13 assessed as inhibition of visible growth incubated for 16 to 18 hrs by CLSI method; assay type: functional; conditions: time 16-18 hrs, read-out: MIC100
[14] = test system: Staphylococcus aureus; test: Antibacterial activity against methicillin-resistant Staphylococcus aureus clinical isolate M-14 assessed as inhibition of visible growth incubated for 16 to 18 hrs by CLSI method; assay type: functional; conditions: time 16-18 hrs, read-out: MIC100
[15] = test system: Staphylococcus aureus; test: Antibacterial activity against methicillin-resistant Staphylococcus aureus clinical isolate M-15 assessed as inhibition of visible growth incubated for 16 to 18 hrs by CLSI method; assay type: functional; conditions: time 16-18 hrs, read-out: MIC100
[16] = test system: Staphylococcus aureus; test: Antibacterial activity against methicillin-resistant Staphylococcus aureus clinical isolate M-16 assessed as inhibition of visible growth incubated for 16 to 18 hrs by CLSI method; assay type: functional; conditions: time 16-18 hrs, read-out: MIC100
[17] = test system: Staphylococcus aureus; test: Antibacterial activity against methicillin-resistant Staphylococcus aureus clinical isolate M-17 assessed as inhibition of visible growth incubated for 16 to 18 hrs by CLSI method; assay type: functional; conditions: time 16-18 hrs, read-out: MIC100
[18] = test system: Staphylococcus aureus; test: Antibacterial activity against methicillin-resistant Staphylococcus aureus clinical isolate M-18 assessed as inhibition of visible growth incubated for 16 to 18 hrs by CLSI method; assay type: functional; conditions: time 16-18 hrs, read-out: MIC100
[19] = test system: Staphylococcus aureus; test: Antibacterial activity against methicillin-resistant Staphylococcus aureus clinical isolate M-19 assessed as inhibition of visible growth incubated for 16 to 18 hrs by CLSI method; assay type: functional; conditions: time 16-18 hrs, read-out: MIC100
[20] = test system: Staphylococcus aureus; test: Antibacterial activity against methicillin-resistant Staphylococcus aureus clinical isolate M-20 assessed as inhibition of visible growth incubated for 16 to 18 hrs by CLSI method; assay type: functional; conditions: time 16-18 hrs, read-out: MIC100

Row | SMILES | MIC [1] | MIC [2] | MIC [3] | MIC [4] | MIC [5] | MIC [6] | MIC [7] | MIC [8] | HC50 at 1 h [9] | selectivity ratio [10] | MIC [11] | MIC [12] | MIC [13] | MIC [14] | MIC [15] | MIC [16] | MIC [17] | MIC [18] | MIC [19] | MIC [20]
1 | C=CCc1ccc(OCCCC[N+](C)(C)CC(=O)NCCCC)c(-c2ccc(OCCCC[N+](C)(C)CC(=O)NCCCC)c(CC=C)c2)c1.[Br-].[Br-] | 2 µg/mL | 1 µg/mL | 2 µg/mL | 4 µg/mL | 8 µg/mL | 8 µg/mL | 8 µg/mL | 16 µg/mL | 531 µg/mL | 266 | 2 µg/mL | 2 µg/mL | 2 µg/mL | 2 µg/mL | 4 µg/mL | 4 µg/mL | 4 µg/mL | 4 µg/mL | 4 µg/mL | 2 µg/mL
2 | C=CCc1ccc(OCCCC[N+](C)(C)CC(=O)NCCC)c(-c2ccc(OCCCC[N+](C)(C)CC(=O)NCCC)c(CC=C)c2)c1.[Br-].[Br-] | 2 µg/mL | 2 µg/mL | 2 µg/mL | 2 µg/mL | 8 µg/mL | 8 µg/mL | 8 µg/mL | 8 µg/mL | 644 µg/mL | 322 | 4 µg/mL | 4 µg/mL | 4 µg/mL | 4 µg/mL | 4 µg/mL | 4 µg/mL | 8 µg/mL | 8 µg/mL | 8 µg/mL | 8 µg/mL
3 | C=CCc1ccc(OCCC[N+](C)(C)CC(=O)NCC)c(-c2ccc(OCCC[N+](C)(C)CC(=O)NCC)c(CC=C)c2)c1.[Br-].[Br-] | 2 µg/mL | 4 µg/mL | 4 µg/mL | 4 µg/mL | 16 µg/mL | 32 µg/mL | 64 µg/mL | 32 µg/mL | 1130 µg/mL | 567 | 8 µg/mL | 4 µg/mL | 4 µg/mL | 9 µg/mL | 4 µg/mL | 2 µg/mL | 4 µg/mL | 4 µg/mL | 4 µg/mL | 4 µg/mL
4 | C=CCc1ccc(O)c(-c2cc(CC=C)ccc2OCCCC[N+](C)(C)CC(=O)N(CCCC)CCCC)c1.[Br-] | 2 µg/mL | 4 µg/mL | 1 µg/mL | 2 µg/mL | 8 µg/mL | 32 µg/mL | 32 µg/mL | 64 µg/mL | 712 µg/mL | 356 | 16 µg/mL | 16 µg/mL | 8 µg/mL | 8 µg/mL | 8 µg/mL | 8 µg/mL | 8 µg/mL | 8 µg/mL | 8 µg/mL | 8 µg/mL
5 | C=CCc1ccc(O)c(-c2cc(CC=C)ccc2OCCC[N+](C)(C)CC(=O)NCCCCCC)c1.[Br-] | 2 µg/mL | 2 µg/mL | 0.5 µg/mL | 0.5 µg/mL | 8 µg/mL | 16 µg/mL | 16 µg/mL | 16 µg/mL | 743 µg/mL | 372 | 4 µg/mL | 2 µg/mL | 4 µg/mL | 2 µg/mL | 2 µg/mL | 2 µg/mL | 2 µg/mL | 2 µg/mL | 2 µg/mL | 2 µg/mL
6 | C=CCc1ccc(OCCC[N+](C)(C)CC(=O)NCCC)c(-c2ccc(OCCC[N+](C)(C)CC(=O)NCCC)c(CC=C)c2)c1.[Br-].[Br-] | 2 µg/mL | 2 µg/mL | 1 µg/mL | 4 µg/mL | 16 µg/mL | 16 µg/mL | 32 µg/mL | 32 µg/mL | 682 µg/mL | 341 | 4 µg/mL | 4 µg/mL | 4 µg/mL | 2 µg/mL | 2 µg/mL | 2 µg/mL | 4 µg/mL | 4 µg/mL | 4 µg/mL | 2 µg/mL
7 | C=CCc1ccc(OCCC[N+](C)(C)CC(=O)N(CCCC)CCCC)c(-c2ccc(OCCC[N+](C)(C)CC(=O)N(CCCC)CCCC)c(CC=C)c2)c1.[Br-].[Br-] | 4 µg/mL | 2 µg/mL | 2 µg/mL | 1 µg/mL | 4 µg/mL | 4 µg/mL | 16 µg/mL | 8 µg/mL | 1080 µg/mL | 270 | 8 µg/mL | 8 µg/mL | 8 µg/mL | 8 µg/mL | 8 µg/mL | 8 µg/mL | 8 µg/mL | 8 µg/mL | 8 µg/mL | 8 µg/mL
8 | C=CCc1ccc(OCCCC[N+](C)(C)CC(=O)NCCCCC)c(-c2ccc(OCCCC[N+](C)(C)CC(=O)NCCCCC)c(CC=C)c2)c1.[Br-].[Br-] | 4 µg/mL | 2 µg/mL | 2 µg/mL | 2 µg/mL | 16 µg/mL | 16 µg/mL | 8 µg/mL | 8 µg/mL | 448 µg/mL | 112 | 1 µg/mL | 2 µg/mL | 2 µg/mL | 2 µg/mL | 2 µg/mL | 2 µg/mL | 2 µg/mL | 2 µg/mL | 2 µg/mL | 2 µg/mL
9 | C=CCc1ccc(O)c(-c2cc(CC=C)ccc2OCCCC[N+](C)(C)CC(=O)NCCCC)c1.[Br-] | 2 µg/mL | 2 µg/mL | 0.5 µg/mL | 0.5 µg/mL | 8 µg/mL | 8 µg/mL | 16 µg/mL | 16 µg/mL | 555 µg/mL | 277 | 4 µg/mL | 2 µg/mL | 2 µg/mL | 2 µg/mL | 1 µg/mL | 1 µg/mL | 2 µg/mL | 1 µg/mL | 1 µg/mL | 1 µg/mL
10 | C=CCc1ccc(OCC[N+](C)(C)CC(=O)NCCC)c(-c2ccc(OCC[N+](C)(C)CC(=O)NCCC)c(CC=C)c2)c1.[Br-].[Br-] | 16 µg/mL | 8 µg/mL | 16 µg/mL | 16 µg/mL | 64 µg/mL | 64 µg/mL | 64 µg/mL | 64 µg/mL | 703 µg/mL | 43.9 | 8 µg/mL | 8 µg/mL | 8 µg/mL | 8 µg/mL | 4 µg/mL | 4 µg/mL | 4 µg/mL | 8 µg/mL | 8 µg/mL | 8 µg/mL
11 | C=CCc1ccc(O)c(-c2cc(CC=C)ccc2OCC[N+](C)(C)CC(=O)NCCCCC)c1.[Br-] | 8 µg/mL | 16 µg/mL | 4 µg/mL | 4 µg/mL | 32 µg/mL | 64 µg/mL | 64 µg/mL | 64 µg/mL | 645 µg/mL | 80.7 | 16 µg/mL | 16 µg/mL | 8 µg/mL | 8 µg/mL | 8 µg/mL | 8 µg/mL | 8 µg/mL | 8 µg/mL | 8 µg/mL | 8 µg/mL
12 | C=CCc1ccc(O)c(-c2cc(CC=C)ccc2OCC[N+](C)(C)CC(=O)N(CCCC)CCCC)c1.[Br-] | 2 µg/mL | 4 µg/mL | 1 µg/mL | 2 µg/mL | 8 µg/mL | 16 µg/mL | 16 µg/mL | 16 µg/mL | 786 µg/mL | 393 | 4 µg/mL | 4 µg/mL | 4 µg/mL | 4 µg/mL | 4 µg/mL | 2 µg/mL | 2 µg/mL | 2 µg/mL | 2 µg/mL | 2 µg/mL
13 | C=CCc1ccc(OCC[N+](C)(C)CC(=O)NCCCCCC)c(-c2ccc(OCC[N+](C)(C)CC(=O)NCCCCCC)c(CC=C)c2)c1.[Br-].[Br-] | 8 µg/mL | 4 µg/mL | 4 µg/mL | 8 µg/mL | 32 µg/mL | 32 µg/mL | 32 µg/mL | 32 µg/mL | 934 µg/mL | 117 | 8 µg/mL | 8 µg/mL | 8 µg/mL | 8 µg/mL | 8 µg/mL | 16 µg/mL | 4 µg/mL | 8 µg/mL | 8 µg/mL | 4 µg/mL
